The values that follow come from US9878986B2, “Compounds for selective histone deacetylase inhibitors, and pharmaceutical composition comprising the same” (CHONG KUN DANG PHARMACEUTICAL CORP., priority 2013, dated 2018).

The test system of one test is colitis models. As to the kind of experiment: Colitis models (dextran sulfate sodium). The format is in vivo, C57BL/6J mice. To be noted: intraperitoneally twice a day after 8 days from supply of DSS; disease-induced models lost to 17.5 to 18 g. Here is the method: 3.0% dextran sulfate sodium (DSS: MP biomedicals) was dissolved in deionized water and supplied to 9-week-old C57BL/6J mice for 5 to 7 days and then water was normally supplied to the mice to induce colitis in animal models. The experimental animals were classified into a solvent control group and each group treated with Compound 254 and Compound 255 as test materials based on the body weight of the experimental animals. The test material was intraperitoneally injected twice a day after 8 days from the supply of DSS. The evaluation of the efficacy in colitis models was made by determining the degree to which the weight, lost due to the disease, was recovered to normal level, and the results are shown in FIG. 6.

In test [1] the test system is collagen-induced arthritis models. Nature of the test: Collagen-induced arthritis models. To be noted: 30 mg/kg twice a day. The format is in vivo, DBA/1J mice. Here is the method:
An emulsion was prepared by mixing bovine collagen type II (Chondrex) and complete Freund's adjuvant (Chondrex) at a ratio of 1:1 until the […] using a 1 ml pipette. Each 100 μL of emulsion was intradermally injected into the tail of DBA/1J mice for the first immunization. After 21 days, an emulsion was prepared by mixing bovine collagen type II and incomplete Freund's adjuvant (Chondrex) at a ratio of 1:1 by the same method as above. Each of 100 μL of emulsion was intradermally injected into the upper part of the tail of DBA/1J mice for the second boosting immunization. After the second boosting immunization, the mice were grouped according to body weight, the test drug was administered to each group, and the effects of the test drugs were measured by measuring the clinical score and the body weight. The clinical scores were assigned from 0 to 4, and the total clinical score was determined by evaluating the feet of each mouse and summing up the scores (normal: 0, most severe edema: 16). That is, the efficacy in the arthritis models was evaluated with the severity of edema of the joint, and a higher score was assigned to more severe edema.

The next test has as its target HDAC1 (Homo sapiens, UniProt Q13547). Nature of the test: Test of HDAC activities, HDAC1 Fluorimetric Drug Discovery Assay Kit. More on the design: purchased Enzolifesciences BML-AK511. The conditions noted are these: samples at 100, 1000, 10000 nM; 37° C. 60 minutes; fluorescence Ex 390, Em 460; read-out: HDAC inhibitory activities, HDAC1. The format is biochemical. Summed up:
(§1)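 HDAC1 tested at 100, 1000 and 10000 nM; recombinant human HDAC6 at 0.1, 1, 10, 100 and 1000 nM. Reaction 60 min at 37° C, then developer for 30 min at 37° C; fluorescence read at Ex 390/Em 460.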

A further test addresses T1, HDAC 6 (Homo sapiens, UniProt Q9UBN7).
T1 sequence (Q9UBN7 1-1215): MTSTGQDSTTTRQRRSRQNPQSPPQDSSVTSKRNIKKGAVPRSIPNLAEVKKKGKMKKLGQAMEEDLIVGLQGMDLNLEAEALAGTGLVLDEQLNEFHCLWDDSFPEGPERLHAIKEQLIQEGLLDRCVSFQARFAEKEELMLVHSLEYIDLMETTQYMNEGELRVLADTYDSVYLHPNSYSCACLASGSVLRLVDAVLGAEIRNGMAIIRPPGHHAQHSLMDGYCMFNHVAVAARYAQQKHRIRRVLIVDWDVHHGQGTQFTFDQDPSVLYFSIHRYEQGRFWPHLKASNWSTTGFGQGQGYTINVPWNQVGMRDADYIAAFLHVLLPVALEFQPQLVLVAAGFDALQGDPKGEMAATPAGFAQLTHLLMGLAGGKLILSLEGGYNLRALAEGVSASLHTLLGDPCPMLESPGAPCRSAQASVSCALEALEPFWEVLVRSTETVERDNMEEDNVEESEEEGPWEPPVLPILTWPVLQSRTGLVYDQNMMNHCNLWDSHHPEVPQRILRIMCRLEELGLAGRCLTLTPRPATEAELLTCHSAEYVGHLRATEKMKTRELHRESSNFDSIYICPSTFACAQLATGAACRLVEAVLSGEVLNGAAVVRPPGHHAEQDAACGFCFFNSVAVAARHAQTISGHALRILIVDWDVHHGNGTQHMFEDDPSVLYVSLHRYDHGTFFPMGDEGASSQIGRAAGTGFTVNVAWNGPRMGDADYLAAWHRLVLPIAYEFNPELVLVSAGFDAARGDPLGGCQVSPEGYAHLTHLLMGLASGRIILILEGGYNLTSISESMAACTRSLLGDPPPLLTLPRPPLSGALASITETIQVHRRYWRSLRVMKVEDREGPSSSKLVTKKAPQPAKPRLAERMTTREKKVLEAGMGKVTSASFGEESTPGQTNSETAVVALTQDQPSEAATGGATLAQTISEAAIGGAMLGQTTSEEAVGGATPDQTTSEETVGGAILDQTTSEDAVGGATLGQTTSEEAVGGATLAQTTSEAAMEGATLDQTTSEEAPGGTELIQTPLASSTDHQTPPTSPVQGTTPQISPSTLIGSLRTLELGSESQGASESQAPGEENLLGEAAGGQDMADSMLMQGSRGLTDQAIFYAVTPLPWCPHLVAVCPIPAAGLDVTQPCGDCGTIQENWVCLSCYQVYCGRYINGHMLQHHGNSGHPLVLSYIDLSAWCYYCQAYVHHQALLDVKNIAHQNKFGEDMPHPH
As to the kind of experiment: Test of HDAC activities, HDAC6 (fluorimetric). The format is biochemical. More on the design: purchased Calbiochem 382180. The conditions noted are these: samples at 0.1, 1, 10, 100, 1000 nM; 37° C. 60 minutes; fluorescence Ex 390, Em 460; read-out: HDAC inhibitory activities, HDAC6. The essentials: as §1

Test [2] has as its system adjuvant-induced arthritis models. Nature of the test: Adjuvant-induced arthritis models. To be noted: for clinical score: intraperitoneally, vehicle group 4.2. The format is in vivo, Lewis rat. On the procedure:
Complete Freund's Adjuvant (Chondrex) containing 10 mg/mL Heat killed mycobacteria toxin was sufficiently mixed, and then 100 μL was taken and intradermally injected into the upper part of the tail of Lewis rat to induce arthritis. After 10 days, the length of the ankle circumference of rats was measured, and then the rats were grouped and used in the experiment. Each compound was intraperitoneally injected twice a day. The clinical score, the length of the ankle circumference, and the weight were measured twice a week after the administration of the compounds. The clinical scores were assigned from 0 to 4 based on the thesis of Woods, etc. (J. Immunology, 1214-1222, 2001), and the total clinical score was determined by evaluating the feet of each rat and summing up the scores (normal: 0, most severe edema: 16). The length of the ankle circumference was calculated based on the formula of 2×3.14(√(a^2+b^2/2)) after measuring top-bottom sides (a) of the foot and lateral sides (b) of the foot. The final value was determined by averaging the calculated values of each foot.

SMILES strings stand for the structures.

HDAC1, sequence (Q13547 whole entry): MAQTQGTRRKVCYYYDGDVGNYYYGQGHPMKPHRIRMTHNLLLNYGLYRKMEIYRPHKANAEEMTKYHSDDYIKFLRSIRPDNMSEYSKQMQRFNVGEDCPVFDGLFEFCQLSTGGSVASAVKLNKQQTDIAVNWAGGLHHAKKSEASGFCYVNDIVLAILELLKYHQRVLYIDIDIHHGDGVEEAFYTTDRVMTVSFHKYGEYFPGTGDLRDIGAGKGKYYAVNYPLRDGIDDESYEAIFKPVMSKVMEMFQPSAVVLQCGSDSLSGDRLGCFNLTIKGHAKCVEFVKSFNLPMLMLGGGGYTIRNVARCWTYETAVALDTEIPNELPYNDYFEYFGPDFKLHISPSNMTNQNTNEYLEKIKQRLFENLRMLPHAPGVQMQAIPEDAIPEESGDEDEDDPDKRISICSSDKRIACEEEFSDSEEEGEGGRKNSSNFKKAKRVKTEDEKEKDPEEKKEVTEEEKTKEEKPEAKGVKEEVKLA

As to `Cn1ncc2ccc(-c3cccc(N(Cc4ccc(C(=O)NO)cc4)C(=O)N4CCOCC4)c3)cc21` [Compound 254, N-(4-(hydroxycarbamoyl)benzyl)-N-(3-(1-methyl-1H-indazol-6-yl)phenyl)morpholine-4-carboxamide], in the test on colitis models, the “weight recovered to” value is on record as 18.5 to 19.0 g. Besides, the “arthritis symptoms improved by” value in test [1] (versus vehicle group) is “more than 40%”. The compound further yielded a clinical score in test [1] (score 0 to 16, vehicle group 11.6) of 6.4. For the same compound, the IC50 on HDAC1 is 173 nM; on HDAC 6 it was 2 nM.
Turning to `CCN1CCN(C(=O)N(Cc2ccc(C(=O)NO)cc2)c2cccc(C(F)(F)F)c2)CC1` [Compound 461, 4-ethyl-N-(4-(hydroxycarbamoyl)benzyl)-N-(3-(trifluoromethyl)phenyl)piperazine-1-carboxamide], the IC50 on HDAC1 is 2720 nM; on HDAC 6, 1 nM. The clinical score in test [2] (25 mg/kg twice a day) stood at 1.9; in test [2] (50 mg/kg twice a day), 1.3. The “improvement compared with MTX used as the control group” value in test [2] (25 and 50 mg/kg twice a day) is “higher than that of MTX”. In addition, the “arthritis symptoms improved by” value in test [2] (25 and 50 mg/kg twice a day, versus vehicle group) fell in the range of 50 to 70%.
As for `CC1CN(C(=O)N(Cc2ccc(C(=O)NO)cc2)c2cccc(C(F)(F)F)n2)CC(C)O1` (centres unmarked) [Compound 827, N-(4-(hydroxycarbamoyl)benzyl)-2,6-dimethyl-N-(6-(trifluoromethyl)pyridin-2-yl)morpholine-4-carboxamide], the IC50 on HDAC1 worked out at 1740 nM; at HDAC 6 it was 24.7 nM.
The like results for `O=C(NO)c1ccc(CN(C(=O)N2CCCCC2)c2cccc(C(F)(F)F)n2)cc1` [Compound 828, N-(4-(hydroxycarbamoyl)benzyl)-N-(6-(trifluoromethyl)pyridin-2-yl)piperidine-1-carboxamide] were, in that order, 4140 nM and 36.7 nM.
For `O=C(NO)c1ccc(CN(C(=O)N2CC[C@H](F)C2)c2cccc(C(F)(F)F)n2)cc1` [Compound 829, (S)-3-fluoro-N-(4-(hydroxycarbamoyl)benzyl)-N-(6-(trifluoromethyl)pyridin-2-yl)pyrrolidine-1-carboxamide], the results for the IC50 at HDAC1 and at HDAC 6 were 1600 nM and 8.2 nM, respectively.
